Measured values taken from ChEMBL document CHEMBL1131840, “Structure-based design and synthesis of a novel class of Src SH2 inhibitors” (Bioorg Med Chem Lett, 1999).

What was measured:
[1] = target: T1, Proto-oncogene tyrosine-protein kinase Src (Homo sapiens, UniProt P12931); assay: Inhibition of binding to Src SH2 domain
[2] = target: T1, Proto-oncogene tyrosine-protein kinase Src; assay: Binding affinity for Src SH2 domain

T1 sequence (P12931 2-536 limits assumed): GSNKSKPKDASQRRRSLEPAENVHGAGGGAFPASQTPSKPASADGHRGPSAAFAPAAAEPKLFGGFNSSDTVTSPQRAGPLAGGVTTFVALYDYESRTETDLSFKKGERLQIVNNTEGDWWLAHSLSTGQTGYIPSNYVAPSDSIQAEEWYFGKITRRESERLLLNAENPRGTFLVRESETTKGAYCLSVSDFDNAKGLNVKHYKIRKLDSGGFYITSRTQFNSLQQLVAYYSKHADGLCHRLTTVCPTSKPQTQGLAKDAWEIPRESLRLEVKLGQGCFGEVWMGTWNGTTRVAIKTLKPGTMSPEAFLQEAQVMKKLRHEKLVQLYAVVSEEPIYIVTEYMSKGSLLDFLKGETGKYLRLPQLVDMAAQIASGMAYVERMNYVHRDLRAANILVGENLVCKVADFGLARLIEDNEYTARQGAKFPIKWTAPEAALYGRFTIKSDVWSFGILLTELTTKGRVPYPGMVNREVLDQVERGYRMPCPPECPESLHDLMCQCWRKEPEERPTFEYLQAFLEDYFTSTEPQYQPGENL

| Structure (SMILES) | IC50 [1] [µM] | Kd [2] [µM] |
| --- | --- | --- |
| CC(=O)N[C@@H](Cc1ccc(OP(=O)(O)O)cc1)C(=O)NCc1cccc(CC2CCCCC2)c1 | 769 |  |
| CC[C@H](C)[C@H](NC(=O)[C@H](CCC(=O)O)NC(=O)[C@H](CCC(=O)O)NC(=O)[C@@H](N)Cc1ccc(OP(=O)(O)O)cc1)C(=O)O |  | 0.1 |
| CC[C@H](NC(=O)[C@H](Cc1ccc(OP(=O)(O)O)cc1)NC(C)=O)c1cccc(CC2CCCCC2)c1 | 306 |  |
